Source: BigSolDB 2.1

O=C(Nc1ccccc1)c1ccccc1O
solubility (mole fraction)
Conditions | 283.15 K | 288.15 K | 293.15 K | 298.15 K | 303.15 K | 308.15 K | 313.15 K | 318.15 K | 323.15 K
in acetonitrile | 0.0129 | 0.0153 | 0.0181 | 0.0217 | 0.0258 | 0.0307 | 0.0359 | 0.0423 | 0.0485
in ethanol | 0.0185 | 0.0207 | 0.0235 | 0.0273 | 0.0322 | 0.0366 | 0.0425 | 0.0487 | 0.0572
in ethyl acetate | 0.0344 | 0.039 | 0.0432 | 0.0486 | 0.0554 | 0.0635 | 0.0709 | 0.0808 | 0.0892
in ethyl formate | 0.0195 | 0.0219 | 0.0248 | 0.0293 | 0.0334 | 0.041 | 0.0488 | 0.0585 | 0.0681
in isopropanol | 0.0169 | 0.0199 | 0.0225 | 0.0265 | 0.0315 | 0.036 | 0.041 | 0.0473 | 0.053
in isopropyl acetate | 0.0281 | 0.031 | 0.0352 | 0.0389 | 0.0439 | 0.0502 | 0.0567 | 0.0638 | 0.0709
in methyl acetate | 0.0366 | 0.0408 | 0.0443 | 0.05 | 0.0568 | 0.0658 | 0.0766 | 0.0879 | 0.101
in n-butanol | 0.013 | 0.0155 | 0.0178 | 0.021 | 0.0247 | 0.0292 | 0.0346 | 0.0403 | 0.0467
in n-butyl acetate | 0.028 | 0.0311 | 0.0349 | 0.0388 | 0.0435 | 0.049 | 0.0545 | 0.061 | 0.0686
in n-pentanol | 0.014 | 0.0157 | 0.0181 | 0.0206 | 0.0238 | 0.0281 | 0.0338 | 0.0396 | 0.0459
in n-propanol | 0.0134 | 0.0168 | 0.0199 | 0.0229 | 0.0266 | 0.0314 | 0.0363 | 0.0418 | 0.0479
in n-propyl acetate | 0.0303 | 0.0347 | 0.0378 | 0.0435 | 0.0483 | 0.0542 | 0.0616 | 0.0703 | 0.0796
